Among the data in PMC6934184, “Selective DNA-PKcs inhibition extends the therapeutic index of localized radiotherapy and chemotherapy” (The Journal of Clinical Investigation, 2019) are inhibition values, retold here.

Structures are written as SMILES.

For this assay, the target named is T1, SRPK1 (Homo sapiens, UniProt Q96SB4).
T1 construct: purchased Thermo Fisher Scientific (Life Technologies) SelectScreen
Put plainly: SelectScreen Z'LYTE. It counts as biochemical. Summed up:
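SelectScreen broad panel; activity (Z'LYTE, Adapta) plus binding formats. ATP: Km app for CSF1R Z'LYTE; 10 for CAMK1 Adapta. Readout = % per kinase.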

T1 sequence (Q96SB4 whole entry): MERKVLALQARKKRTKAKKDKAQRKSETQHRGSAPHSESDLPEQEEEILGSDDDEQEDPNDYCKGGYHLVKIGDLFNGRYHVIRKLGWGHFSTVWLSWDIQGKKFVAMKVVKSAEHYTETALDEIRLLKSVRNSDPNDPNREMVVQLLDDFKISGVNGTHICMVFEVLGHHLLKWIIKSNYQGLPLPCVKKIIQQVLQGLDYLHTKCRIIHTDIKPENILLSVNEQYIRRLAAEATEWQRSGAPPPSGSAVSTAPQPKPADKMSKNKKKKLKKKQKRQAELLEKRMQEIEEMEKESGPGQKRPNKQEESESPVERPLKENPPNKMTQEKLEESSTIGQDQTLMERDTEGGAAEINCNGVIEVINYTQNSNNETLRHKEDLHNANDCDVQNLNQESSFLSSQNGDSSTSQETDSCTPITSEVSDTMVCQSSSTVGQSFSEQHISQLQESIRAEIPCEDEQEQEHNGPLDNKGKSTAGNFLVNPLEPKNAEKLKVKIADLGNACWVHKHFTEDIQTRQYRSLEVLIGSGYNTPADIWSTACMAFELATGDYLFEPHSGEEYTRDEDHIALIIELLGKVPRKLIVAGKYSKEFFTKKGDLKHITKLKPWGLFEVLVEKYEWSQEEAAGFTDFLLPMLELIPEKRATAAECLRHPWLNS

As for `CN(C(=O)CN1CCOCC1)c1ccc2sc3c(-c4cccc5c(=O)cc(N6CC7CCC(C6)O7)oc45)cccc3c2c1` [NU5455], the inhibition (commonly the drop in the measured response relative to a control, in per cent) at 1 µM is -1.1%.
